Patent publication US6482810B1, “Antibiotic composition for inhibition of angiogenesis” (priority 1991, dated 2002)
Like-named read-outs stand apart in the source and are kept apart here.

Tests used:
[1] = test system: tumor-induced angiogenesis (VX2 carcinoma) in the rabbit cornea; test: Rabbit cornea angiogenesis assay with VX2 carcinoma and controlled release polymers; conditions: for factor of decrease of tumor-induced angiogenesis: versus empty polymer
[2] = test system: angiogenesis in the cornea; conditions: rabbit, in vivo
[3] = test system: angiogenesis in the cornea; test: Drug-containing polymers implanted alone in the cornea; conditions: polymer without tumor in the cornea

Row | angiogenesis induced by polymer implanted alone [2] | Compound | inhibition of tumor angiogenesis (angiogenesis index) ([1]; controlled release from EVAc polymer, 7, 14 and 21 days, P<0.05) | factor of decrease of tumor-induced angiogenesis ([1]; 7 days after implantation) | factor of decrease of tumor-induced angiogenesis ([1]; 14 days after implantation) | factor of decrease of tumor-induced angiogenesis ([1]; 21 days after implantation) | angiogenesis induced by polymer implanted alone [3]
1 | did not induce angiogenesis | CC(=O)OCC(=O)[C@@]1(O)CC[C@H]2[C@@H]3CCC4=CC(=O)CC[C@]4(C)[C@H]3C(=O)C[C@@]21C [cortisone, cortisone acetate] | significantly inhibited |  |  |  | 
2 |  | CN(C)c1ccc(O)c2c1C[C@H]1C[C@H]3[C@H](N(C)C)C(O)=C(C(N)=O)C(=O)[C@@]3(O)C(O)=C1C2=O [minocycline] |  | 4.5 | 4.4 | 2.9 | did not induce angiogenesis
3 |  | heparin |  |  |  |  | promote a mild angiogenic response
